For this assay, the target named is T1, wild-type human cardiac sodium channel, hNav1.5 (late sodium current) (Homo sapiens, UniProt Q14524).
T1 construct: host or cells: HEK293
Description: Late INa screening assay (PatchXpress whole cell patch clamp). Type of assay: cell-based. To be noted: HEK293 hNav1.5, late INa generated with 10 μM Tefluthrin (some experiments 50 nM ATX II); for inhibition at 10 µM: 10 μM test compound, read-out: Late INa % blk (10 μM test cmpd); for inhibition at 1 µM: 1 μM test compound, read-out: Late INa % blk (1 μM test cmpd). The procedure: The late sodium current (Late INa) and peak sodium current (Peak INa) assays are performed on an automated electrophysiology platform, PatchXpress 7000A (MDS Analytical Technologies, Sunnyvale, Calif.), which uses the whole cell patch clamp technique to measure currents through the cell membrane of up to 16 cells at a time. The assay uses an HEK293 (human embryonic kidney) cell line heterologously expressing the wild-type human cardiac sodium channel, hNav1.5, purchased from Millipore (Billerica, Mass.). No beta subunits were coexpressed with the Na channel alpha subunit. Cells are maintained with standard tissue culture procedures and stable channel expression is maintained with 400 μg/ml Geneticin in the culture medium. […] Experiments are carried out at 24-27° C.
For both the Late INa and Peak INa assays, series resistance compensation is set to 50% and whole-cell compensation is performed automatically. […] Currents through open sodium channels are automatically recorded and stored in the DataXpress2 database (MDS Analytical Technologies, Sunnyvale, Calif.). Analysis is performed using DataXpress2 analysis software and data are compiled in Excel.
Compound stocks are routinely made in glass vials to 10 mM in dimethyl sulfoxide (DMSO). In some cases, when compounds are not soluble in DMSO, they are made in 100% ethanol. Stocks are sonicated as necessary. The extracellular solution for screening Late INa is composed of: 140 mM NaCl, 4 mM KCl, 1.8 mM CaCl2, 0.75 mM MgCl2, and 5 mM HEPES with pH adjusted to 7.4 using NaOH. The extracellular solution for screening Peak INa is composed of: 20 mM NaCl, 120 mM N-methyl-D glucamine, 4 mM KCl, 1.8 mM CaCl2, 0.75 mM MgCl2, and 5 mM HEPES with pH adjusted to 7.4 using HCl. The intracellular solution used to perfuse the inside of the cells for both the Late INa and Peak INa assays contains: 120 mM CsF, 20 mM CsCl, 5 mM EGTA, 5 mM HEPES and pH adjusted to 7.4 with CsOH. […] The 0Na extracellular solution used at the end of each experiment for the Late INa and Peak INa assays to measure baseline current contains: 140 mM N-methyl-D-glucamine; 4 mM KCl; 1.8 mM CaCl2; 0.75 mM MgCl2; 5 mM HEPES and pH was adjusted to 7.4 with HCl.
For the Late INa assay, sodium channels are activated every 10 seconds (0.1 Hz) by depolarizing the cell membrane to −20 mV for 250 milliseconds (ms) from a holding potential of −120 mV. In response to a −20 mV voltage step, typical Nav1.5 sodium currents activate rapidly to a peak negative current and then inactivate nearly completely within […].
All compounds are tested to determine their activity in blocking the late sodium current. Late INa current is generated by adding 10 μM Tefluthrin (pyrethroid) to the extracellular solution while recording Na currents For some experiments, 50 nM ATX II (sea anemone toxin), another late Na activator, was used to generate the late component. […] After establishing the whole cell recording configuration, late INa activators are added to each well 4 times over a 16-17 minute period so that the late component of the Na current reaches a stable value. […] Measurements are made at the end of exposure to the third compound addition and values are normalized to the current level when all Na^+ is removed from the extracellular solution after two additions of ONa-ECF. Results are reported as percent block of late INa
Background: In patch-clamp work, channel activity is measured electrically.

Each structure is given as a SMILES string.

T1 sequence (Q14524 whole entry): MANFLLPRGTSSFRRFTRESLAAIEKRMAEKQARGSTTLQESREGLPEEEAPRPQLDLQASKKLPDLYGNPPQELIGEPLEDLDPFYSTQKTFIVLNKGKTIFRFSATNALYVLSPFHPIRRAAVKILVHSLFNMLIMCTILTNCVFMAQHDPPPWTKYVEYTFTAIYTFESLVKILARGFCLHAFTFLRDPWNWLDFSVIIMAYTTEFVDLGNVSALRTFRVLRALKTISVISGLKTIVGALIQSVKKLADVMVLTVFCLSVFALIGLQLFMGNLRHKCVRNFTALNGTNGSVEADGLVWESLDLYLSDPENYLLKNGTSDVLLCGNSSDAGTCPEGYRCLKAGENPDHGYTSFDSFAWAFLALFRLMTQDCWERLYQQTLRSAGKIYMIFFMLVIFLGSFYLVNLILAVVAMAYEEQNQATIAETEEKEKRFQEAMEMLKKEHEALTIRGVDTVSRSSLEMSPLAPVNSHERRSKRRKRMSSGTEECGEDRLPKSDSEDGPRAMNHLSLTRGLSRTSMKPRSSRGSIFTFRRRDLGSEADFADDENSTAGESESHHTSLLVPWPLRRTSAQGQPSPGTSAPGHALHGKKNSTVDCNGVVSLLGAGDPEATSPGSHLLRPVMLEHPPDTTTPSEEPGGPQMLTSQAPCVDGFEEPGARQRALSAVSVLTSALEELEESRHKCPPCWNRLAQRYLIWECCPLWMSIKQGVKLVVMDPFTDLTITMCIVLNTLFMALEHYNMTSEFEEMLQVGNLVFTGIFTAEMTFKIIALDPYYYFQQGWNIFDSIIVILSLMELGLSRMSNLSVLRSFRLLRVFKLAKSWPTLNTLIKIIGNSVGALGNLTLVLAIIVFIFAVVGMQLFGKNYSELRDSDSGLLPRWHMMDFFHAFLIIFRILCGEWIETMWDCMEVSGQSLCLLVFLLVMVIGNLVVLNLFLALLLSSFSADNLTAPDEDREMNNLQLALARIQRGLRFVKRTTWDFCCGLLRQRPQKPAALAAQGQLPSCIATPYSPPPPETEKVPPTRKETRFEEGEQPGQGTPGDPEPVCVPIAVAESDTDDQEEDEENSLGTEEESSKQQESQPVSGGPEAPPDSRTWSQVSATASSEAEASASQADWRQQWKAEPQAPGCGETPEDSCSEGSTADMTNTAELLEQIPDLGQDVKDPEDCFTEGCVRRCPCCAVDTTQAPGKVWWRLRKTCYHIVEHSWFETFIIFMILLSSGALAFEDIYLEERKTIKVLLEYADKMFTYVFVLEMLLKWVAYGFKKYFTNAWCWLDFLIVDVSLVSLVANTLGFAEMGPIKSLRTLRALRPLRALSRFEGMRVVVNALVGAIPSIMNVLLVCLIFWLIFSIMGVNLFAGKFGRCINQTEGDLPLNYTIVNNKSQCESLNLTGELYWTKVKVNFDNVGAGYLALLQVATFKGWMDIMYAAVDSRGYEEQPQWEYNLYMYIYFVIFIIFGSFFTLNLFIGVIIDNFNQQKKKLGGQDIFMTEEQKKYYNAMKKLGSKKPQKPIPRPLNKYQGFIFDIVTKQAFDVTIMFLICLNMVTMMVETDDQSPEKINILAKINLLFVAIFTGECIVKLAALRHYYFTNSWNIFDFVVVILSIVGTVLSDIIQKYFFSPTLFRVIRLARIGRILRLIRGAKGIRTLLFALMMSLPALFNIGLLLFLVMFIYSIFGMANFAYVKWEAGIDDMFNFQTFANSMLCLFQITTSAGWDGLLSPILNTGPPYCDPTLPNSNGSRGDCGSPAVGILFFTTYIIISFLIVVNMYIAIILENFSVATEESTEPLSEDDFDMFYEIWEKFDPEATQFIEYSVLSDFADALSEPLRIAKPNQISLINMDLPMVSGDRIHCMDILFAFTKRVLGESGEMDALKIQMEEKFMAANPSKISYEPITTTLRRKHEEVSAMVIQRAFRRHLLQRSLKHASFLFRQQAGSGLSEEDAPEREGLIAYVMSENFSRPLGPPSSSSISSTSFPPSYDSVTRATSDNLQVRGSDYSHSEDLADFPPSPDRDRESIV

For the compound `CNC(=O)c1cc(NS(=O)(=O)C2CC2)ccc1-c1ccc(Oc2ccccc2)cc1` [PT-139, 4-(cyclopropanesulfonamido)-N-methyl-4′-phenoxybiphenyl-2-carboxamide], the inhibition at 10 µM is 43.7%.

In the case of `CC(C)(C)OC(=O)CN(c1ccc(-c2ccc(F)c(Cl)c2)c(Cl)c1)S(C)(=O)=O` [PT-102, tert-butyl N-(2,3′-dichloro-4′-fluorobiphenyl-4-yl)-N-(methylsulfonyl)glycinate], the inhibition at 10 µM is 53.6%.

With `CS(=O)(=O)Nc1ccc(-c2cccc([N+](=O)[O-])c2)c(Cl)c1` [PT-054, N-(2-chloro-3′-nitrobiphenyl-4-yl)methanesulfonamide], the inhibition at 10 µM was 41.3%.

`CS(=O)(=O)Nc1ccc(-c2cccc(OC(F)(F)F)c2)cc1` [PT-008, N-[3′-(trifluoromethoxy)biphenyl-4-yl]methanesulfonamide]: the inhibition at 10 µM was determined as 39.4%.

With `CCCS(=O)(=O)Nc1ccc(-c2ccc(Cl)c(F)c2)c(Cl)c1` [PT-027, N-(2,4′-dichloro-3′-fluorobiphenyl-4-yl)propane-1-sulfonamide], the inhibition at 10 µM amounted to 55.5%.

For the compound `COCCN(c1ccc(-c2ccc(Cl)c(F)c2)c(Cl)c1)S(C)(=O)=O` [PT-077, N-(2,4′-dichloro-3′-fluorobiphenyl-4-yl)-N-(2-methoxyethyl)methanesulfonamide], the inhibition at 10 µM came to 27.2%.

Turning to `CS(=O)(=O)Nc1ccc(-c2ccc(OC(F)(F)F)cc2)cc1` [PT-086, N-[4′-(trifluoromethoxy)biphenyl-4-yl]methanesulfonamide], the inhibition at 10 µM is 9.4%.

Take `CS(=O)(=O)Nc1ccc(-c2ccc(F)cc2Cl)c(Cl)c1` [PT-045, N-(2,2′-dichloro-4′-fluorobiphenyl-4-yl)methanesulfonamide]: the inhibition at 10 µM amounted to 57.5%.

As to `CS(=O)(=O)Nc1ccc(-c2ccc(Cl)c(F)c2)cc1OC(F)(F)F` [PT-074, N-[4′-chloro-3′-fluoro-3-(trifluoromethoxy)biphenyl-4-yl]methanesulfonamide], the inhibition at 10 µM turned out to be 24.2%.

As to `CS(=O)(=O)Nc1ccc(-c2cccc(OC(F)(F)F)c2)c(F)c1` [PT-067, N-[2-fluoro-3′-(trifluoromethoxy)biphenyl-4-yl]methanesulfonamide], the inhibition at 1 µM is 13.8% and the inhibition at 10 µM stood at 70.7%.

As to `CS(=O)(=O)Nc1ccc(-c2ccc(Cl)c(F)c2)c(F)c1` [PT-059, N-(4′-chloro-2,3′-difluorobiphenyl-4-yl)methanesulfonamide], the inhibition at 10 µM was 41.3%.

As for `CS(=O)(=O)Nc1ccc(-c2ccc(C(F)(F)F)cc2)cc1` [PT-006, N-[4′-(trifluoromethyl)biphenyl-4-yl]methanesulfonamide], the inhibition at 10 µM was 22.7%.

`CS(=O)(=O)Nc1ccc(-c2ccc(OC(F)(F)F)cc2)c(Cl)c1` [PT-094, N-[2-chloro-4′-(trifluoromethoxy)biphenyl-4-yl]methanesulfonamide]: the inhibition at 10 µM stood at 5.6%.

`Cc1cc(NS(=O)(=O)C2CC2)ccc1-c1ccc(C#N)cc1` [PT-150, N-(4′-cyano-2-methylbiphenyl-4-yl)cyclopropanesulfonamide]: the inhibition at 10 µM worked out at 22.5%.

For the compound `COc1cc(NS(C)(=O)=O)ccc1-c1cccc(OC(F)(F)F)c1` [PT-010, N-[2-methoxy-3′-(trifluoromethoxy)biphenyl-4-yl]methanesulfonamide], the inhibition at 10 µM worked out at 48.2%.

Consider `COC(=O)c1cc(-c2ccc(Oc3ccccc3)cc2)ccc1NS(C)(=O)=O` [PT-118, methyl 4-[(methylsulfonyl)amino]-4′-phenoxybiphenyl-3-carboxylate], for which the inhibition at 10 µM is 40.8%.

On to `COc1cc(NS(C)(=O)=O)ccc1-c1ccc(C(F)(F)F)cc1` [PT-004, N-[2-methoxy-4′-(trifluoromethyl)biphenyl-4-yl]methanesulfonamide], for which the inhibition at 10 µM was found to be 42.8%.

Take `COc1cc(NS(C)(=O)=O)ccc1-c1ccccc1OC(F)(F)F` [PT-011, N-[2-methoxy-2′-(trifluoromethoxy)biphenyl-4-yl]methanesulfonamide]: the inhibition at 10 µM is 47.6%.

For `CS(=O)(=O)Nc1ccc(-c2ccc(F)cc2)c(Cl)c1` [PT-037, N-(2-chloro-4′-fluorobiphenyl-4-yl)methanesulfonamide], the inhibition at 10 µM is 40.4%.

On to `CC(C)Oc1ccc(-c2ccc(NS(=O)(=O)C3CC3)c(C#N)c2)cc1` [PT-152, N-(3-cyano-4′-isopropoxybiphenyl-4-yl)cyclopropanesulfonamide], for which the inhibition at 10 µM came to 29%.

For the compound `COC(=O)c1cc(-c2ccc(C(F)(F)F)cc2)ccc1NS(C)(=O)=O` [PT-121, methyl 4-[(methylsulfonyl)amino]-4′-(trifluoromethyl)biphenyl-3-carboxylate], the inhibition at 10 µM stood at 40.5%.

For the compound `Cc1cc(N(Cc2cccnc2)S(C)(=O)=O)ccc1-c1cccc(OC(F)(F)F)c1` [PT-073, N-[2-methyl-3′-(trifluoromethoxy)biphenyl-4-yl]-N-(pyridin-3-ylmethyl)methanesulfonamide], the inhibition at 10 µM turned out to be 64.4%.

In the case of `CS(=O)(=O)Nc1ccc(-c2ccc(OC(F)(F)F)cc2)c(C(F)(F)F)c1` [PT-014, N-[4′-(trifluoromethoxy)-2-(trifluoromethyl)biphenyl-4-yl]methanesulfonamide], the inhibition at 10 µM turned out to be 50.5%.

With `Cc1cc(N(Cc2ccc(C(=O)OC(C)(C)C)cc2)S(C)(=O)=O)ccc1-c1ccc(Oc2ccccc2)cc1` [PT-107, tert-butyl 4-{[(2-methyl-4′-phenoxybiphenyl-4-yl)(methylsulfonyl)amino]methyl}benzoate], the inhibition at 10 µM is 21.2%.

With `CS(=O)(=O)Nc1ccc(-c2ccc(F)c(C(F)(F)F)c2)c(Cl)c1` [PT-069, N-[2-chloro-4′-fluoro-3′-(trifluoromethyl)biphenyl-4-yl]methanesulfonamide], the inhibition at 10 µM turned out to be 63%.

For `CS(=O)(=O)Nc1ccc(-c2ccc(Oc3ccc(F)cc3)cc2)cc1Cl` [PT-149, N-(3-chloro-4′-(4-fluorophenoxy)biphenyl-4-yl)methanesulfonamide], the inhibition at 10 µM was 58%.

As for `Cc1cc(N(Cc2ccc(C(=O)O)cc2)S(C)(=O)=O)ccc1-c1ccc(Oc2ccc(F)cc2)cc1` [PT-136, 4-((N-(4′-(4-fluorophenoxy)-2-methylbiphenyl-4-yl)methylsulfonamido)methyl)benzoic acid], the inhibition at 10 µM was found to be 8.8%.

For the compound `CS(=O)(=O)Nc1ccc(-c2cccc(C(F)(F)F)c2)cc1OC(F)(F)F` [PT-076, N-[3-(trifluoromethoxy)-3′-(trifluoromethyl)biphenyl-4-yl]methanesulfonamide], the inhibition at 10 µM was determined as 18.7%.

As for `CS(=O)(=O)Nc1ccc(-c2ccc(OC(F)(F)F)cc2)cc1OC(F)(F)F` [PT-099, N-[3,4′-bis(trifluoromethoxy)biphenyl-4-yl]methanesulfonamide], the inhibition at 10 µM was found to be 8.9%.

Regarding `COP(=O)(O)c1cc(-c2ccc(Oc3ccc(F)cc3)cc2)ccc1NS(C)(=O)=O` [PT-159, methyl hydrogen 4′-(4-fluorophenoxy)-4-(methylsulfonamido)biphenyl-3-ylphosphonate], the inhibition at 10 µM was determined as 36.1%.

Turning to `CS(=O)(=O)Nc1ccc(-c2ccc(F)c(Cl)c2)c(Cl)c1` [PT-038, N-(2,3′-dichloro-4′-fluorobiphenyl-4-yl)methanesulfonamide], the inhibition at 1 µM was 28.8% and the inhibition at 10 µM is 71%.

`COc1cc(N(CC(=O)O)S(C)(=O)=O)ccc1-c1cccc(OC(F)(F)F)c1` [PT-089, N-[2-methoxy-3′-(trifluoromethoxy)biphenyl-4-yl]-N-(methylsulfonyl)glycine]: the inhibition at 10 µM was -4.1%.

These data come from US8389500B2, “Fused heterocyclic compounds as ion channel modulators” (Gilead Sciences, Inc., priority 2008, dated 2013).
